Test results taken from patent US20040151761A1, “Methods and compositions utilizing astaxanthin” (priority 2003, published 2004).
Entries after “also recorded” stand apart in the source; their conditions may differ.

Tests used:
[1] = test system: total T, Th, Tc, MHC II and CD21 lymphocyte populations; assay: Leukocyte subsets in cats by flow cytometry; type: in vivo, cat
Text: Leukocyte subset. Blood collected at week 0, 8 and 12 was phenotyped for populations of CD3 (total T), CD4 (Th), CD8 (Tc), MHC II (activated lymphocytes), and CD21 (mature B cells) by flow cytometry (FACSCalibur, Becton Dickenson, San Jose, Calif.) as previously described (Chew et al., 2000).

[2] = test system: mouse splenocytes; conditions: cultured cell assay (Jyonouchi et al.); cited from earlier work
[3] = test system: lipid peroxidation; assay: Lipid peroxidation in dogs; type: in vivo, dog
[4] = Plasma astaxanthin in dogs fed astaxanthin diets; type: in vivo, dog
Protocol: (§1) Female Beagle dogs (9 to 10 mo old; 8.2±0.2 kg body weight; Covance Research Products Inc., Kalamazoo, Mich.) were randomly assigned (n=14/treatment) to be fed 0, 10, 20, or 40 mg astaxanthin (109 g astaxanthin/kg oleoresin concentrate from Haematococcus pluvialis, astraZanthin™, La Haye Laboratories, Redmond, Wash.) daily for 16 weeks. Astaxanthin was incorporated into a commercial basal diet (The Iams Co., Lewisburg, Ohio.) and fed two times daily (200 g food/d). The diet composition was as follows (g/kg): 85.3 moisture, 275.8 protein, 60.7 ash, 115.0 fat, 9.9 Ca, 9.3 P, 21.3 crude fiber, and 18,914 kJ/kg gross energy; the n-6:n-3 fatty acid ratio was 7.9. Dogs were housed in 2×3 m pens (2 dogs/pen) in a temperature (20 to 22° C.) and light-(14 hour light) controlled facility. Body weight was recorded on week 0, 4, 8, and 16. Blood was collected on wk 0, 6 and 12 for assessing immune function. All dogs were vaccinated (Vanguard 5™, Smithkline Beacham, West Chester, Pa.) twice on week 12 and 14 and blood again taken on week 16 to assess post-vaccination immune responses.

[5] = test system: total T, Th, Tc, MHC II and CD21 lymphocyte populations; assay: Leukocyte subsets in cats by flow cytometry; type: in vivo, cat; conditions: by weeks 8 and 12, generally dose-dependent
[6] = Hematology in dogs; type: in vivo, dog; conditions: throughout the study
Protocol: Hematology. Complete blood count (white blood cell, RBC and platelet counts, lymphocyte, monocyte and granulocyte differential counts, hematocrit, hemoglobin, and mean corpuscular volume, hemoglobin and hemoglobin concentration, and platelet volume) was performed on a hematology analyzer (Vet ABC-Hematology Analyzer, Heska, Fort Collins, Colo.) using EDTA-treated blood.

[7] = test system: mammary and bladder tumor; conditions: cited from earlier work
[8] = compared with other antioxidants (Naguib, 2000; Miki, 1991); cited from earlier work
[9] = Body weight of cats fed astaxanthin; type: in vivo, cat
Protocol: (§2) Female domestic short hair cats (8 to 9 months old; 3.2±0.04 kg body weight; Liberty Farms, Waverly, N.Y.) were randomly assigned (n=14/diet) to be fed 0, 1, 5, or 10 mg astaxanthin (109 g astaxanthin/kg oleoresin concentrate from Haematococcus pluvialis, astraZanthin™, La Haye Laboratories, Redmond, Wash.) daily (based on an average intake of 90 g food/day) for 12 weeks. Astaxanthin was incorporated into a commercial basal diet (The Iams Co., Lewisburg, Ohio.) and fed ad libitum. The diet composition was as follows (g/kg): 63.1 moisture, 350.6 protein, 62.7 ash, 213.6 fat, 10.0 Ca, 7.6 P, and 7.1 crude fiber, 21,707 kJ/kg gross energy; the n-6:n-3 fatty acid ratio was 9.9. Cats were housed in a temperature (20 to 22° C.) and light-controlled (14 hour light) facility and body weights were determined at weeks 0, 4, 8 and 12. Blood was collected at week 0 and 8 to assess immune function. To assess the dietary effects of astaxanthin on immune response after an antigenic challenge, all cats were vaccinated (Felocell™, Pfizer, N.Y.) two times (weeks 8 and 10) and blood was collected at week 12 to measure the same immune parameters.

[10] = test system: IgG and IgM; assay: Plasma IgG and IgM in cats (ELISA); type: in vivo, cat
Protocol: as §2
IgG and IgM. Plasma concentrations of IgG (sheep anti-IgG; sensitivity=16 μg/L) and IgM (goat anti-IgM; sensitivity=31 μg/L) were analyzed by ELISA using a commercial kit (Bethyl Lab., Inc., Montgomery, Tex.).

[11] = Plasma astaxanthin in cats fed astaxanthin diets; type: in vivo, cat
Protocol: as §2

[12] = Absorption of astaxanthin and distribution to blood leukocytes and HDL in cats; type: in vivo, cat
[13] = Body weight of dogs fed astaxanthin; type: in vivo, dog
Protocol: as §1

[14] = test system: humoral and cell-mediated immune responses; conditions: cited from earlier work
[15] = test system: C-reactive protein (CRP); assay: Plasma C-reactive protein in dogs; type: in vivo, dog
Protocol: C-Reactive protein. Changes in acute phase proteins were assessed in plasma by measuring the C-reactive protein (CRP) concentrations using horseradish peroxidase-labeled anti-canine CRP in a solid-phase sandwich immunoassay (Tri Delta Diagnostics, Morris Plains, N.J.).

[16] = test system: splenocyte; conditions: mice (Chew et al., 1999); cited from earlier work
[17] = post-vaccination week 12, 10 mg

time at which maximal blood concentrations were observed ([4]; all supplemented dogs): ≤ 6 wk | plasma astaxanthin concentration ([4]; supplemented dogs, through week 16): increased in a dose-dependent manner | blood hematology [6]: generally showed no dietary effects | plasma astaxanthin concentrations ([11]; at week 8): rapid initial increase | absorption of dietary astaxanthin ([12]; domestic cats): able to absorb dietary astaxanthin
Compound: CC1=C(/C=C/C(C)=C/C=C/C(C)=C/C=C/C=C(C)/C=C/C=C(C)/C=C/C2=C(C)C(=O)C(O)CC2(C)C)C(C)(C)CC(O)C1=O (stereo not drawn) [astaxanthin, 3,3′-dihydroxy-beta, beta-carotene-4,4′-dione]
CD8+ T cytotoxic (Tc) cells averaged ([1]; average over diets): 4.7±0.4 | MHC class II population averaged ([1]; average over diets, in % (unit assumed)): 94.1±1.0 | population of CD4+ T helper (Th) cells ([1]; by weeks 8 and 12, generally dose-dependent): increased the populations; also recorded: increase in the populations of total T and Th lymphocytes | MHC class II population ([1]; in vivo): did not influence | distribution of CD8+ T cytotoxic (Tc) cells ([1]; in vivo): did not influence | population of B cells ([1]; in vivo): decreased the population of B cells; also recorded: decrease in the B cell population | in vitro antibody response of mouse splenocytes to T-dependent antigens [2]: increase in vitro antibody response | lipid peroxidation [3]: reduced lipid peroxidation | population of CD5+ total T cells [5]: increased the populations; also recorded: increase in the populations of total T and Th lymphocytes | mammary tumor growth ([7]; rodents (Chew et al., 1999a)): inhibited | bladder tumor growth ([7]; rodents (Tanaka et al., 1994)): inhibited | antioxidant activity against certain reactive oxygen species [8]: higher than that of beta-carotene, canthaxanthin, lutein, alpha-tocopherol, tunaxanthin, and zeaxanthin | body weight between treatments ([9]; cats fed 0, 1, 5 or 10 mg daily, 12 weeks): not significantly different between treatment | body weight averaged ([9]; week 12, average over all diets): 3.22 ± 0.06 kg | plasma IgG concentration ([10]; post-vaccination week 12, 5 mg): only those fed 5 mg astaxanthin were significant | plasma IgM concentration ([10]; post-vaccination week 12, 5 mg): only those fed 5 mg astaxanthin were significant | plasma IgG concentration [10, 17]: still numerically higher | plasma IgM concentration [10, 17]: still numerically higher | plasma IgG concentration ([10]; week 8, 10 mg): higher | plasma IgM concentration ([10]; week 8, 10 mg): higher | plasma astaxanthin concentrations ([11]; cats fed 1, 5 or 10 mg daily): generally a dose-dependent increase; also recorded: dose-related increase in plasma astaxanthin | plasma astaxanthin ([11]; week 8 through week 12): continued to increase, albeit more gradually | lipoprotein association of circulating astaxanthin ([12]; cats): associated with high-density lipoprotein (HDL) | uptake by blood and blood leukocytes (sub-cellular organelles) ([12]; domestic cats fed astaxanthin): significant uptake by the blood and by all sub-cellular organelles of blood leukocytes; also recorded: significantly absorbed by blood leukocytes | influence of diet on body weight ([13]; dogs fed 0, 10, 20 or 40 mg daily, throughout 16 wk study): did not significantly influence body weight | body weight averaged ([13]; wk 16, average over all diets): 8.57 ± 0.11 kg | cell-mediated immune response ([14]; rodents (Chew et al., 1999b)): enhanced | T cell-mediated antibody production ([14]; rodents (Jyonouchi et al., 1994)): increased T cell-mediated antibody production | humoral immune response ([14]; rodents (Jyonouchi et al., 1995)): enhanced | plasma C-reactive protein concentrations ([15]; post-vaccination, week 16): decreased plasma C-reactive protein concentrations; also recorded: lower concentrations of circulating CRP | plasma CRP concentrations between diets ([15]; through week 12): similar | plasma CRP concentration averaged ([15]; through week 12, average over diets): 4.48 mg/L | mitogen-induced splenocyte proliferation [16]: enhance mitogen-induced splenocyte proliferation
